Data taken from patent US8133913B2, “Substituted indeno [1,2-b]indole derivatives as novel inhibitors of protein kinase CK2 and their use as tumor therapeutic agents, cytostatics and diagnostic aids” (Heinrich-Heine Universitat Dusseldof, priority 2006, dated 2012).
Read-outs that look alike come from different tables or passages of the source.

Columns and labels:
SISO = test: Proliferation of tumor cell lines (Bracht et al.); assay type: cell-based; conditions: for activity at 20 µM: tested at 20 μM, read-out: T/C (%) Mean
KYSE-70 = test: Proliferation of tumor cell lines (Bracht et al.); assay type: cell-based; conditions: Homo sapiens; for activity at 20 µM: KYSE-70, tested at 20 μM, read-out: T/C (%) Mean
AKT1 = biological target: T1, AKT1 (Homo sapiens, UniProt P31749); test: Radiometric protein kinase assay (33PanQinase Activity Assay); assay type: biochemical
T1 construct: made in house; host or cells: Sf9 insect cells, baculovirus
T1 sequence (P31749 whole entry): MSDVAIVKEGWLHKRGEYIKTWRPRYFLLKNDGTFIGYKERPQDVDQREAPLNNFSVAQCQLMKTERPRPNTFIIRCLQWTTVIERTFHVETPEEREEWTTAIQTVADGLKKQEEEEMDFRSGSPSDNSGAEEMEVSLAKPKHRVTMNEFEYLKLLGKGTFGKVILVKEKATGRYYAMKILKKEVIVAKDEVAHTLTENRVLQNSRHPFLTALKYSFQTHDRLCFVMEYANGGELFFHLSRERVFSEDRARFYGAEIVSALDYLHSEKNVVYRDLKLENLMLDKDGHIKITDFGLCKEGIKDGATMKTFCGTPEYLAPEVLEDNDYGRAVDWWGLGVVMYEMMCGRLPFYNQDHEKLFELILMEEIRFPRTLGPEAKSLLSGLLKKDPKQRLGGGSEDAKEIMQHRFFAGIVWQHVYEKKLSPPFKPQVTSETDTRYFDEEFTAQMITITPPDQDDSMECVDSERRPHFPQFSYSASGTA
Text: (§1) AKTI1, ARK5, Aurora-A, Aurora-B, B-RAF-VE, CDK2/CycA, CDK4/CycD1, CK2-alpha1 (catalytic subunit of CK2), EGF-R, EPHB4, ERBB2, FAK, IGF1-R, SRC, VEGF-R2, VEGF-R3, FLT3, INS-R, MET, PDGFR-beta, PLK1, SAK, TIE2, COT.
(§2) All the protein kinases were expressed in Sf9 insect cells as human recombinant GST fusion proteins or His-tagged proteins by the baculovirus expression system. Kinases were purified by affinity chromatography either by GSH-agarose (Sigma) or Ni—NTH-agarose (Qiagen). The purity of the kinases was tested by SDS-PAGE/silver staining, and the identity of the kinases was verified by Western blot analysis with specific antibodies or mass spectroscopy.
(§3) A radiometric protein kinase assay (33PanQinase® Activity Assay) was used to measure the kinase activity for the 24 protein kinases. The kinase assays were carried out in 96-well FlashPlates™ from Perkin Elmer/NEN (Boston, Mass., USA) in a reaction volume of 50 μl. The reaction mixture was pipetted in 4 steps in the following sequence: • 20 μl of assay buffer • 5 μl of ATP solution (in H2O) • 5 μl of test compound (in 10% DMSO) • 10 μl of substrate/10 μl of enzyme solution (premixed)
(§4) The assays for all the enzymes contained 60 mM HEPES-NaOH, pH 7.5, 3 mM MgCl2, 3 mM MnCl2, 3 μM Na orthovanadate, 1.2 mM DTT, 50 μg/ml PEG20000, 1 μM [γ-^33P]-ATP (about 5×10^5 cpm per well).
(§5) The reaction mixture was incubated at 30° C. for 80 minutes. The reaction was stopped with 50 μl of 2% (v/v) H3PO4. The plates were aspirated and washed twice with 200 μl of 0.9% (w/v) NaCl. The incorporation of ^33Pi was determined using a microtiter plates scintillation counter (Microbeta Trilux, Wallac).

ARK5 = biological target: T2, ARK5 (Homo sapiens, UniProt O60285); test: as above; assay type: biochemical
T2 construct: made in house; host or cells: Sf9 insect cells, baculovirus
T2 sequence (O60285 1-661): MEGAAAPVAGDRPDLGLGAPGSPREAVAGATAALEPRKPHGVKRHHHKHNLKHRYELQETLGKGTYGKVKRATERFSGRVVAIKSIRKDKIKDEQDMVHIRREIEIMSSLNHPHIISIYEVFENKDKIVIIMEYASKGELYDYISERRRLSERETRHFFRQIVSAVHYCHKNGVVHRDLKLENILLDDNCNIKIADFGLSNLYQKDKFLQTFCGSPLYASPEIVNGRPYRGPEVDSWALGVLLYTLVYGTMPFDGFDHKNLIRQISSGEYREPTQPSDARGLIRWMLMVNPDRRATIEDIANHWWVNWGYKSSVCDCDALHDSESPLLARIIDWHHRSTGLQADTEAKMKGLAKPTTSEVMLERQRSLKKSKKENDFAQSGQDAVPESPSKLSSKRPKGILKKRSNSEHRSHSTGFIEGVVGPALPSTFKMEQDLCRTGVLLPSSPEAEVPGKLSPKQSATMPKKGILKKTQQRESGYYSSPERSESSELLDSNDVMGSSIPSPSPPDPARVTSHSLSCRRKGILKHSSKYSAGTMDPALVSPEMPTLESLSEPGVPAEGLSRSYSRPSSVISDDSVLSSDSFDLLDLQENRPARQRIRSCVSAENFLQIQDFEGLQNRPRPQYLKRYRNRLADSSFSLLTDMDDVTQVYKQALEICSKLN
Text: as §1, §2, §3, §4, §5

CDK2/CycA = biological target: T3, CDK2/CycA (Homo sapiens, UniProt P24941); test: as above; assay type: biochemical
T3 construct: made in house; host or cells: Sf9 insect cells, baculovirus
Text: as §1, §2, §3, §4, §5

CDK4/CycD1 = biological target: T4, CDK4/CycD1 (Homo sapiens, UniProt P11802); test: as above; assay type: biochemical
T4 construct: made in house; host or cells: Sf9 insect cells, baculovirus
T4 sequence (P11802 whole entry): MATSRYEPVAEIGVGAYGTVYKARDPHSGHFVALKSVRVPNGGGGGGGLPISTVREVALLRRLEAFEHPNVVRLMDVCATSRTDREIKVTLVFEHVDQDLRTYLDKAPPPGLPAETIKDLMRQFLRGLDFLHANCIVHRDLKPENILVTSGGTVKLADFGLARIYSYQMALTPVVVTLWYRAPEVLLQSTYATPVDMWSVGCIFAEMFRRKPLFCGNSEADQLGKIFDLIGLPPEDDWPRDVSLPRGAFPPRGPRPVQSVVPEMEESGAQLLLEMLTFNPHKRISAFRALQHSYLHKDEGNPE
T4 sequence (P24385 whole entry partner): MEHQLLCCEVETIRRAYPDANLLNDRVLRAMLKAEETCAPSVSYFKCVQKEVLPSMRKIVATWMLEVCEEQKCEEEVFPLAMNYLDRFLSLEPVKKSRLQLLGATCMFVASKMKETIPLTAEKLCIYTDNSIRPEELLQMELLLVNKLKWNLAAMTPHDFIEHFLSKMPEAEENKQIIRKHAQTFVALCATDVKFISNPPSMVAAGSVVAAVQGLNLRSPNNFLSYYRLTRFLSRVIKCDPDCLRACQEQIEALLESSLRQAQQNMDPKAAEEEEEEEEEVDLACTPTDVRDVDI
Text: as §1, §2, §3, §4, §5

FAK = biological target: T5, FAK (Homo sapiens, UniProt Q05397); test: as above; assay type: biochemical
T5 construct: made in house; host or cells: Sf9 insect cells, baculovirus
T5 sequence (Q05397 whole entry): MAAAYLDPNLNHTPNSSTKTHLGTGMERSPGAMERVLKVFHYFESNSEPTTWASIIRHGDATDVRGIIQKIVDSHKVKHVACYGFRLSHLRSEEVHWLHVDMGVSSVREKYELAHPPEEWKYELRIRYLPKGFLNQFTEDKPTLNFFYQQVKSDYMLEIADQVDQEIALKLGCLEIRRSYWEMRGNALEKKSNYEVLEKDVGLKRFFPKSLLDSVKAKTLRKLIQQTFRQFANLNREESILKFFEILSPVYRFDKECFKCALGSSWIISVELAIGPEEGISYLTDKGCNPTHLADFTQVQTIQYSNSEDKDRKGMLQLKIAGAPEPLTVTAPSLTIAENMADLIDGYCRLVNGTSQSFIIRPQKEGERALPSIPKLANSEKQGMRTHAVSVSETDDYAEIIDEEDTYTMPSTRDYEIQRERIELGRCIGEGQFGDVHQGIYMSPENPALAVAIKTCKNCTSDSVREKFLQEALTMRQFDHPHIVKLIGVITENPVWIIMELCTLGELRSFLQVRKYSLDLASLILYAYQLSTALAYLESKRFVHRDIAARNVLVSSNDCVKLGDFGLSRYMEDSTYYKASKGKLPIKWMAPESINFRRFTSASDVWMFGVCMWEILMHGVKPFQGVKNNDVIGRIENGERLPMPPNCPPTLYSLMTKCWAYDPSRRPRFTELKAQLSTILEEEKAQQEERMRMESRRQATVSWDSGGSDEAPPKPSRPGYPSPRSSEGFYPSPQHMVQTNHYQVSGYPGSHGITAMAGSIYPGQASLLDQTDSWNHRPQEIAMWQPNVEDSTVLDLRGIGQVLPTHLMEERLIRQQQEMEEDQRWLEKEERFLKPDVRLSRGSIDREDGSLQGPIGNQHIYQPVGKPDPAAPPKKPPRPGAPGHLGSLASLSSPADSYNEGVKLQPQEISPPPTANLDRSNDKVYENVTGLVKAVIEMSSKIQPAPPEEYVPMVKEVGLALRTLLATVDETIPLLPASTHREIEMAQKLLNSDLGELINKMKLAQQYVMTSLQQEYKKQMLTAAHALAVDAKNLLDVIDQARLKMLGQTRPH
Text: as §1, §2, §3, §4, §5

IGF1-R = biological target: T6, IGF1-R (Homo sapiens, UniProt P08069); test: as above; assay type: biochemical
T6 construct: made in house; host or cells: Sf9 insect cells, baculovirus
Text: as §1, §2, §3, §4, §5

TIE2 = biological target: T7, TIE2 (Homo sapiens, UniProt Q02763); test: as above; assay type: biochemical
T7 construct: made in house; host or cells: Sf9 insect cells, baculovirus
T7 sequence (Q02763 23-1124): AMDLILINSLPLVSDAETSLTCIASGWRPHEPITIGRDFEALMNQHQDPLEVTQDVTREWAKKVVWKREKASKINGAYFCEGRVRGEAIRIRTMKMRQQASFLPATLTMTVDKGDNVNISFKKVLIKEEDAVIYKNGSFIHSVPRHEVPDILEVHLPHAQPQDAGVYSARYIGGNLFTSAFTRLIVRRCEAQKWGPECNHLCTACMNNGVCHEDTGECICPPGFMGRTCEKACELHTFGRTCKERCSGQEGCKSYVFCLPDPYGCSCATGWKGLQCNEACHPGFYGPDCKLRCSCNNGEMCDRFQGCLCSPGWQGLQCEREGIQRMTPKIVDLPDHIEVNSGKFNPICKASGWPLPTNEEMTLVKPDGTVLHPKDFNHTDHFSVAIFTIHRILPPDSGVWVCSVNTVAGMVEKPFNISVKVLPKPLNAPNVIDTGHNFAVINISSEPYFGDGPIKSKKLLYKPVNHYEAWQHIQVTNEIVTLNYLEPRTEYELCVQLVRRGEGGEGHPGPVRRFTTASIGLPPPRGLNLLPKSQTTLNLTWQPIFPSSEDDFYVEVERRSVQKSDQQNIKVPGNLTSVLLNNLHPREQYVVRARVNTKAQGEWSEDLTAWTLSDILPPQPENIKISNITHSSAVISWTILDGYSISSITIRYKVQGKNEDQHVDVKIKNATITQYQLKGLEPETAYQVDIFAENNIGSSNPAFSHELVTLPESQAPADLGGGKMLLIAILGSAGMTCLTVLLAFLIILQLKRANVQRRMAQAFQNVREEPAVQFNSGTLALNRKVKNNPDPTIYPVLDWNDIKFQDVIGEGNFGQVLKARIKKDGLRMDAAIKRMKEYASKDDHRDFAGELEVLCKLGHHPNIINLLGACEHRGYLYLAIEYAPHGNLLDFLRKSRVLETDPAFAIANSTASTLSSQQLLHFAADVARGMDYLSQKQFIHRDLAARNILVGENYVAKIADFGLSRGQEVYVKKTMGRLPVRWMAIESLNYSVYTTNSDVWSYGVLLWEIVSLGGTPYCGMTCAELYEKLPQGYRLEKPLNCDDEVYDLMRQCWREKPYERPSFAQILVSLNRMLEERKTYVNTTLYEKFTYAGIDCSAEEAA
Text: as §1, §2, §3, §4, §5

VEGF-R3 = biological target: T8, VEGF-R3 (Homo sapiens, UniProt P35916); test: as above; assay type: biochemical
T8 construct: made in house; host or cells: Sf9 insect cells, baculovirus
T8 sequence (P35916 25-1363): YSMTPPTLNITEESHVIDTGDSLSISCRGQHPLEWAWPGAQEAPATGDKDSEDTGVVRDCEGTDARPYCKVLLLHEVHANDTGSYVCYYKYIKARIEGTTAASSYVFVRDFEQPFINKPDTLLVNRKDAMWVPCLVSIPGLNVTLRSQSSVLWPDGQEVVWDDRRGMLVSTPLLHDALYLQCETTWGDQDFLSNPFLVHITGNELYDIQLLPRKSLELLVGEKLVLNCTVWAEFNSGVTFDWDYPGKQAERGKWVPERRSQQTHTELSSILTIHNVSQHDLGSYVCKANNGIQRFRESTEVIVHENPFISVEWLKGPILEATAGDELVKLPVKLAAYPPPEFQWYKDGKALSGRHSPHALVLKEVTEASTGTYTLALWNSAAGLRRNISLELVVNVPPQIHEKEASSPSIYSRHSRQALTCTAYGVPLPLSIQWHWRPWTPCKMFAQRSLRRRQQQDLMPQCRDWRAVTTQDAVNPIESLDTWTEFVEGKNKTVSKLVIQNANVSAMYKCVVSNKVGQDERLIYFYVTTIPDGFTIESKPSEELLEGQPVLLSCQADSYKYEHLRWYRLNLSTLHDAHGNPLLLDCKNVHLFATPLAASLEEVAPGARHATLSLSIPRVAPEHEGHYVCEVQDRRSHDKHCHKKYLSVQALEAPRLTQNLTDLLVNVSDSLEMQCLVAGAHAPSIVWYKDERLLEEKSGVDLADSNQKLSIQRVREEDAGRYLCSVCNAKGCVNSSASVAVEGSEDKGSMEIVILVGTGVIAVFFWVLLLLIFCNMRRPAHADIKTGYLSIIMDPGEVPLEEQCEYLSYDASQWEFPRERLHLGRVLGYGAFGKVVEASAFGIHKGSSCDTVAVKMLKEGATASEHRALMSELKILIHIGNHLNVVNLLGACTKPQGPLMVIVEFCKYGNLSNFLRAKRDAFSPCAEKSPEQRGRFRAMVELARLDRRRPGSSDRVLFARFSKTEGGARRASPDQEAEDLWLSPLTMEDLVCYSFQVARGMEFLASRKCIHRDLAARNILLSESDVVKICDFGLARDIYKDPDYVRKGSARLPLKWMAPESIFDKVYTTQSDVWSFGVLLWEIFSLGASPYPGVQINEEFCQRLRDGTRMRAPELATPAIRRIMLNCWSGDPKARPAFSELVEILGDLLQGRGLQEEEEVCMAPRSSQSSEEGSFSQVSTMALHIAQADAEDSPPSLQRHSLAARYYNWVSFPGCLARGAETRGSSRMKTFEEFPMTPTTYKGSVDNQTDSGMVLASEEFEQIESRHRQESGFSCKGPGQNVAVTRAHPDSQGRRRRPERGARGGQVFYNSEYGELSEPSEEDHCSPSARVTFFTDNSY
Text: as §1, §2, §3, §4, §5

[1] = 1 μM ATP, read-out: IC50 values [μM] AKT1
[2] = 1 μM ATP, read-out: IC50 values [μM] ARK5
[3] = 1 μM ATP, read-out: IC50 values [μM] CDK2/CycA
[4] = 1 μM ATP, read-out: IC50 values [μM] CDK4/CycD1
[5] = 1 μM ATP, read-out: IC50 values [μM] FAK
[6] = 1 μM ATP, read-out: IC50 values [μM] IGF1-R
[7] = 1 μM ATP, read-out: IC50 values [μM] TIE2
[8] = 1 μM ATP, read-out: IC50 values [μM] VEGF-R3

| Compound | activity at 20 µM (SISO) [%] | activity at 20 µM (KYSE-70) [%] | IC50 (AKT1) [µM] | IC50 (ARK5) [µM] | IC50 (CDK2/CycA) [µM] | IC50 (CDK4/CycD1) [µM] | IC50 (FAK) [µM] | IC50 (IGF1-R) [µM] | IC50 (TIE2) [µM] | IC50 (VEGF-R3) [µM] | IC50 (AKT1; [1]) [µM] | IC50 (ARK5; [2]) [µM] | IC50 (CDK2/CycA; [3]) [µM] | IC50 (CDK4/CycD1; [4]) [µM] | IC50 (FAK; [5]) [µM] | IC50 (IGF1-R; [6]) [µM] | IC50 (TIE2; [7]) [µM] | IC50 (VEGF-R3; [8]) [µM] | IC50 (SISO; read-out: IC50 (μM) Mean, inhibition of cell proliferation) [µM] | IC50 (KYSE-70; KYSE-70, read-out: IC50 (μM) Mean, inhibition of cell proliferation) [µM] |
| --- | --- | --- | --- | --- | --- | --- | --- | --- | --- | --- | --- | --- | --- | --- | --- | --- | --- | --- | --- | --- |
| CC(C)n1c2c(c3c1-c1ccccc1C3=O)C(=O)CCC2 [Compound 4b, 5-Isopropyl-5,6,7,8-tetrahydroindeno[1,2-b]indole-9,10-dione] | 100 | 74.9 | > 10 | > 10 | > 10 | > 10 | > 10 | > 10 | > 10 | > 10 |  |  |  |  |  |  |  |  |  |  |
| CC(C)n1c2c(=O)ccc(=O)c2c2c(=O)c3ccccc3c21 [Compound 6b, 5-Isopropyl-5H-indeno[1,2-b]indole-6,9,10-trione] | 0.28 | 1.26 |  |  |  |  |  |  |  |  | 9.3 | 0.17 | > 10 | > 10 | > 10 | 2.9 | 3.2 | 0.96 |  |  |
| O=c1ccc(=O)c2c1c1c(=O)c3ccccc3c1n2Cc1ccccc1 [Compound 6c, 5-Benzyl 5,6,9,10-tetrahydroindeno[1,2-b]indole-6,9,10-trione] | 5.3 | 12.1 |  |  |  |  |  |  |  |  | > 10 | 1.3 | > 10 | 7.6 | > 10 | 2.5 | 4.7 | 7.5 | 2.82 | 2.83 |
